Reference: patent US20260034161A1, “2-HYDROXYPROPYL-BETA-CYCLODEXTRIN AS A CANCER THERAPY NEOADJUVANT OR ADJUVANT” (University of the Witwatersrand, Johannesburg, priority 2022, published 2026)
Entries after “also recorded” stand apart in the source; their conditions may differ.

Columns and labels:
[1] = Serum AST and ALT as a measure of liver toxicity; conditions: mouse, in vivo
Description: In order to investigate the in vivo application of HPβCD as an anti-cancer agent for colorectal cancer (CRC) using NOD/SCID mice, 24 NOD/SCID mice (5-8 weeks old) were injected with 4×10^6 HT-29 cells (suspended in 10% McCoy's media and 1×PBS), until tumours developed. Once tumours reached a size of 150-200 mm^3 (1-2 weeks), treatments (12 treatments in total for each group, however only up to 6 treatments for the OXAL treated group due to obvious toxicity) were given. Treatment groups consisted of 4 mice each and included a control group (injected with 1×PBS), a group treated with HPβCD, a group treated with Oxaliplatin (OXAL) only, a group treated with 5-Fluorouracil (5FU) only, a group treated with HPβCD and OXAL and lastly a group treated with HPβCD and 5FU. Mice were intraperitoneally injected with 3 000 mg/kg of HPβCD, 10 mg/kg of OXAL and 30 mg/kg of 5FU thrice a week for 4 weeks. For combination treatments HPβCD was administered with either 5FU or OXAL chemotherapy. Mice were weighed three times a week and averages were calculated to show per week weights. […]
Blood was collected post euthanization and serum was analysed for AST and ALT levels using the IDEXX Catalyst DX Chemistry Analyzer. […]

HT-29 cells [2] = assay: Immunofluorescence of EMT markers E-cadherin and vimentin in HT-29 cells; format: cell-based
Description: (§1) Three different mechanisms of action were used to induce EMT in breast and colorectal adenocarcinoma cell lines. Breast cancer MCF-7 cells were treated with 150 micromolar (μM) cobalt chloride (CoCl2) for 48 hours. Initially, a working stock solution of 2500 μM COCl2 was prepared by dilution in distilled water. The resulting solution was further diluted upon administration to cells cultured in cell culture media. Cell culture media composition: Dulbecco's Modified Eagle's Medium (DMEM) (Sigma Aldrich, UK) supplemented with 10% foetal bovine serum (FBS) (Celtic Molecular Diagnostics, SA) and 1% Penicillin-Streptomycin (Sigma Aldrich, UK). NMuMg cells (a normal mouse mammary cell line) were treated with 10 nanograms/millilitre of transforming growth factor beta 1 (TGF-β) for 48 hours. A stock solution of TGF-β was prepared by reconstituting 2 μg of recombinant TGF-β at 20 μg/mL in sterile 4 mM HCl containing 1 mg/mL of bovine serum albumin (BSA) diluted in water. NMuMG cells were cultured in Dulbecco's Modified Eagle Medium (DMEM) (ThermoFisher Scientific, USA), supplemented with 10% FBS, 1% Penicillin-Streptomycin, 1% GlutaMAX, and 10 μg/mL insulin. Colorectal cancer HT-29 cells were treated with 50 nanograms/millilitre of interleukin-6 (IL-6) for 24 hours. A working stock solution of 1 micrograms/millilitre of IL-6 was prepared by dilution in 0.1% BSA in phosphate-buffered saline (PBS). The resulting solution was further diluted upon administration to cells cultured in cell culture media. […]
(§2) Protein expression of EMT molecular markers in control and CoCl2, TGF-β and IL-6 treated cells was detected by employing immunofluorescence microscopy. […] E-cadherin expression was detected by Alexa Fluor 488 staining (green) while nuclei were stained with DAPI (blue) (FIG. 1). Vimentin expression was detected by Texas Red staining (red) while nuclei were stained with DAPI (blue) (FIG. 2). […]
(§3) Methyl-β-cyclodextrin (MβCD) was employed as a positive control, as it is a well-documented cholesterol depletory agent. […] Immunofluorescence intensity was quantified by utilising the ImageJ software (NIH, USA). Cells of interest and background fluorescence was analysed by considering the following parameters: area, integrated density and mean grey value. Corrected total cellular fluorescence was calculated as follows: CTCF=Integrated Density−(Area of selected cell×Mean fluorescence of background readings).
(§4) The protein expression of E-cadherin following treatment with various cholesterol targeting agents in MCF-7, NMuMg, and HT-29 cells, pre- and post-EMT induction was investigated. E-cadherin expression was determined by Alexa Fluor 488 staining (green) while nuclei were stained with DAPI (blue). […]

[3] = tested on: multidrug resistance protein 1 (MDR1); assay: Vybrant MDR assay (calcein AM retention); format: cell-based; conditions: HT-29 cells treated with the FOLFOX chemotherapy cocktail; 1 mM MβCD, 10 mM HPβCD; preliminary data
Description: To assess the multi-drug resistant potential of cells pre- and post-EMT, the Vybrant® MDR Assay Kit (ThermoFisher Scientific, USA) was employed. This assay relies on the administration of an appropriate multidrug resistance protein 1 (MDR1) substrate, calcein acetoxymethyl ester (calcein AM) where drug-efflux potential is assessed by measuring the levels of intracellular calcein fluorescence. 10 000 cells were seeded per well in a 96-black walled plate. Following the 2-hour treatment period, cells were incubated with 0.25 μM Calcein-AM for 30 minutes at 37° C. Following this, two PBS washes were completed, and PBS administered to each well to ascertain fluorescence intensity. The Victor Nivo multi-mode microplate reader (Perkin Elmer, USA) was utilised with the excitation maximum set to 494 nm and the emission maximum set to 517 nm.
This can be attributed to alterations in lipid-raft membrane structure resulting in translocation of MDR1 to detergent soluble fractions which affects basal ATPase activity. This consequently affects the efflux potential of the MDR1 transporter. […] Fluorescence intensity (RFU) was quantified using the Victor Nivo multi-mode microplate reader (Perkin Elmer, USA) with the excitation maximum set to 494 nm and the emission maximum set to 517 nm.

NMuMg cells [4] = assay: RT-qPCR of cholesterol-related genes in NMuMg cells; conditions: NMuMg post-EMT
Description: Relative expression is presented as log 2 fold changes between conditions.
To delineate the molecular mechanism governing cholesterol-mediated EMT induction, RT-qPCR analysis of the major cholesterol-related genes were assessed in the NMuMg cell line. RNA was extracted using the Direct-Zol™ RNA MiniPrep kit (Zymo Research, Inqaba Biotec™, SA). RNA extraction was carried out as per the manufacturer's protocol. Total RNA of 1 μg was utilised for cDNA synthesis using the RevertAidFirst Strand cDNA Synthesis kit (Thermo Fisher Scientific, USA) and was carried out according to the manufacturer's protocol. qPCR was performed using the SensiFAST™ SYBR® No-ROX kit, utilising a 3-step cycle on the CFX96 Touch™ Real-Time PCR detection system (Bio-Rad).

NMuMg cells [5] = assay: Immunofluorescence of EMT markers E-cadherin and vimentin in NMuMg cells; format: cell-based, mouse
Description: as §1, §2, §3, §4

HT-29 cells [6] = assay: HT-29 colorectal cancer xenograft in NOD/SCID mice: tumour size, weight, metastasis; format: in vivo; set-up: Tumour reduction / Tumour gain or reduction: concentration or dose not given beside the values; conditions: for Average tumour size / Average tumour weight: group average, 4 mice, 3 000 mg/kg HPβCD, 10 mg/kg OXAL, 30 mg/kg 5FU i.p.; for Tumour reduction: tumour size; for Tumour reduction / Tumour gain or reduction: as compared to the untreated group; for Tumour gain or reduction: tumour weight
Description: (§5) In order to investigate the in vivo application of HPβCD as an anti-cancer agent for colorectal cancer (CRC) using NOD/SCID mice, 24 NOD/SCID mice (5-8 weeks old) were injected with 4×10^6 HT-29 cells (suspended in 10% McCoy's media and 1×PBS), until tumours developed. Once tumours reached a size of 150-200 mm^3 (1-2 weeks), treatments (12 treatments in total for each group, however only up to 6 treatments for the OXAL treated group due to obvious toxicity) were given. Treatment groups consisted of 4 mice each and included a control group (injected with 1×PBS), a group treated with HPβCD, a group treated with Oxaliplatin (OXAL) only, a group treated with 5-Fluorouracil (5FU) only, a group treated with HPβCD and OXAL and lastly a group treated with HPβCD and 5FU. Mice were intraperitoneally injected with 3 000 mg/kg of HPβCD, 10 mg/kg of OXAL and 30 mg/kg of 5FU thrice a week for 4 weeks. For combination treatments HPβCD was administered with either 5FU or OXAL chemotherapy. Mice were weighed three times a week and averages were calculated to show per week weights. When mice were euthanized, serum was collected from whole blood samples and this was further used to test cholesterol levels, as well as Aspartate aminotransferase (AST) and Alanine aminotransferase (ALT) as a measure for liver toxicity. They were then perfused and all organs, including tumours, were harvested. All organs were snap frozen and stored at −80° C. Tumour samples were further stored in 10% neutral buffered formalin (4° C.) and RNA Later (−80° C.).

[7] = Tolerability of treatments in tumour-bearing NOD/SCID mice; format: in vivo
Description: as §5

MCF-7 cells = assay: Immunofluorescence of EMT markers E-cadherin and vimentin in MCF-7 cells; format: cell-based
Description: as §1, §2, §3, §4

[8] = Serum cholesterol levels post treatment; format: in vivo, NOD/SCID mice
Description: as §5

[9] = Toxicity of HPβCD compared to simvastatin
[10] = HT-29, post-EMT (IL-6), 2-hour treatment, 10 mM HPβCD, 1 mM MβCD
[11] = post-EMT (TGF-β), 2-hour treatment, 10 mM HPβCD, 1 mM MβCD
[12] = MCF-7, post-EMT (CoCl2), 2-hour treatment, 10 mM HPβCD, 1 mM MβCD
[13] = MCF-7, 150 μM CoCl2 for 48 hours vs control
[14] = HT-29, 50 ng/mL IL-6 for 24 hours vs control
[15] = 10 ng/mL TGF-β for 48 hours vs control

2-hydroxypropyl-β-cyclodextrin [HPβCD]
AST:ALT ratio [1]: 1.67 U/L
liver toxicity (in words) [1]: no observed liver toxicity
E-cadherin expression (immunofluorescence) (HT-29 cells [2]; [10]): increase
vimentin expression (immunofluorescence) (HT-29 cells [2]; [10]): decrease
intracellular retention of fluorescent calcein [3]: increase
effect on cholesterol efflux (gene expression) (NMuMg cells [4]; 10 mM HPβCD, 10 μM simvastatin for 2 hours): drastically affected
E-cadherin expression (immunofluorescence) (NMuMg cells [5]; [11]): increase
vimentin expression (immunofluorescence) (NMuMg cells [5]; [11]): decrease
average reduction in tumour size (HT-29 cells [6]; 3 000 mg/kg HPβCD i.p.): ~17%
tumour size, visually (HT-29 cells [6]; FIG. 9): reduced
Average tumour size (HT-29 cells [6]): 1983 mm^3
Average tumour weight (HT-29 cells [6]): 3.5125 g
Tumour reduction (HT-29 cells [6]): -17.6%
Tumour gain or reduction (HT-29 cells [6]): 9.17%
effect of HPβCD on toxicity of the co-administered chemotherapy ([7]; 3 000 mg/kg HPβCD i.p. with OXAL or 5FU): decreased the toxicity of OXAL; also recorded: reduced toxicity of OXAL; also recorded: reduce toxicity related to 5FU
E-cadherin expression (immunofluorescence) (MCF-7 cells; [12]): increase
vimentin expression (immunofluorescence) (MCF-7 cells; [12]): decrease
average level of serum cholesterol ([8]; untreated average 51 mg/dL): 65.5 mg/dL
toxicity compared to simvastatin [9]: low toxicity

O=c1[nH]cc(F)c(=O)[nH]1 [5FU, 5-Fluorouracil]
Average tumour size (HT-29 cells [6]): 841.4 mm^3
Average tumour weight (HT-29 cells [6]): 1.4475 g
Tumour reduction (HT-29 cells [6]): -65.1%
Tumour gain or reduction (HT-29 cells [6]): -55%
serum cholesterol levels (in words) [8]: significantly higher

[Cl][Co][Cl] [CoCl2, cobalt chloride]
E-cadherin expression following EMT induction (MCF-7 cells; [13]): significantly decreased
Vimentin expression following EMT induction (MCF-7 cells; [13]): significantly increased

O=C1[O][Pt]2([NH][C@@H]3CCCC[C@H]3[NH]2)[O]C1=O [OXAL, Oxaliplatin]
Average tumour size (HT-29 cells [6]): 1413 mm^3
Average tumour weight (HT-29 cells [6]): 1.6975 g
metastasis at dissection (HT-29 cells [6]; mouse, in vivo): metastasis almost throughout the body in one mouse
Tumour reduction (HT-29 cells [6]): -41.3%
Tumour gain or reduction (HT-29 cells [6]): -47.2%
unexpected death of mice in treatment group ([7]; 6 treatments of OXAL alone, 10 mg/kg i.p.): 50%
health outcome of treated mice ([7]; OXAL alone 6 treatments, OXAL with HPβCD all 12 treatments of the same dose): 2 died and 2 had to be euthanized
serum cholesterol levels (in words) [8]: significantly higher

Methyl-β-cyclodextrin [MβCD]
intracellular retention of fluorescent calcein [3]: increase
effect on cholesterol biosynthesis and influx (gene expression) (NMuMg cells [4]; 1 mM MβCD for 2 hours): more significant effect

interleukin-6 [IL-6]
E-cadherin expression following EMT induction (HT-29 cells [2]; [14]): significantly decreased
Vimentin expression following EMT induction (HT-29 cells [2]; [14]): significantly increased

transforming growth factor beta 1 [TGF-β]
E-cadherin expression following EMT induction (NMuMg cells [5]; [15]): significantly decreased
Vimentin expression following EMT induction (NMuMg cells [5]; [15]): significantly increased
